Patent US10000471B2, “Pyrazole P38 map kinase inhibitors” (Respivert Limited, priority 2010, dated 2018)

What was measured:
[1] = biological target: T1, p38 MAPKα isoform (MAPK14) (Homo sapiens, UniProt Q16539); assay: Enzyme inhibition assay (FRET, Z-LYTE), p38 MAPKα via MAPKAP-K2 activation; type: biochemical; conditions: read-out: Enzyme Inhibition IC50 p38α
T1 construct: purchased Invitrogen
Method: (§1) The enzyme inhibitory activities of compounds disclosed herein were determined by fluorescence resonance energy transfer (FRET) using synthetic peptides labelled with both donor and acceptor fluorophores (Z-LYTE, Invitrogen Ltd., Paisley, UK). Recombinant, phosphorylated p38 MAPKγ (MAPK12:Invitrogen) was diluted in HEPES buffer, mixed with the test compound at the desired final concentrations and incubated for 2 hr at RT. The FRET peptide (2 μM) and ATP (100 μM) were added to the enzyme/compound mixture and incubated for 1 hr. Development reagent (protease) was added for 1 hr prior to detection in a fluorescence microplate reader (Varioskan® Flash, ThermoFisher Scientific). The site-specific protease cleaves non-phosphorylated peptide only and eliminates the FRET signal. Phosphorylation levels of each reaction were calculated using the ratio of coumarin emission (donor) over fluorescein emission (acceptor) for which high ratios indicate high phosphorylation and low ratios indicate low phosphorylation levels. The percentage inhibition of each reaction was calculated relative to non-inhibited control and the 50% inhibitory concentration (IC50 value) then calculated from the concentration-response curve.
For the p38 MAPKα isoform (MAPK14: Invitrogen), enzyme activity was evaluated indirectly by determining the level of activation/phosphorylation of the down-stream molecule, MAPKAP-K2. The p38 MAPKα protein was mixed with the test compound for 2 hr at RT. […] Development reagent was then added and the mixture incubated for 1 hr before detection by fluorescence completed the assay protocol.

[2] = tested on: Differentiated U937 cells; assay: Cell viability MTT assay; type: cell-based, human; conditions: negative = apparent increase in viability; for MTT Assay (Viability) 4 h d-U937, percentage loss of cell viability: 4 hr in 5% FCS; for MTT Assay (Viability) 24 h d-U937, percentage loss of cell viability: 24 h in 10% FCS
Method: Differentiated U937 cells were pre-incubated with each test compound under two protocols: the first for 4 hr in 5% FCS and the second in 10% FCS for 24 h. The supernatant was replaced with 200 μL of new media and 10 μL of MTT stock solution (5 mg/mL) was added to each well. After incubation for 1 hr the media were removed, 200 μL of DMSO was added to each well and the plates were shaken lightly for 1 hr prior to reading the absorbance at 550 nm. The percentage loss of cell viability was calculated for each well relative to vehicle (0.5% DMSO) treatment. Consequently an apparent increase in cell viability for drug treatment relative to vehicle is tabulated as a negative percentage.

[3] = tested on: ICAM-1 induction in BEAS2B cells; assay: Poly I:C-induced ICAM-1 induction in BEAS2B cells; type: cell-based, human; conditions: Homo sapiens, BEAS-2B, read-out: PolyIC/ICAM1 IC50 BEAS2B
Method: Poly I:C-Induced ICAM-1 Induction in BEAS2B Cells
Poly I:C (1 μg/mL) (Invivogene Ltd., San Diego, Calif.) was transfected into BEAS2B cells (human bronchial epithelial cells, ATCC) with Oligofectamine (Invitrogen, Carlsbad, Calif.). Cells were pre-incubated with final concentrations of test compounds for 2 hr and the level of ICAM1 expression on the cell surface was determined by cell-based ELISA. At a time point 18 hr after poly I:C transfection, cells were fixed with 4% formaldehyde in PBS and then endogenous peroxidase was quenched by the addition of 0.1% sodium azide and 1% hydrogen peroxide. Cells were washed with wash-buffer (0.1% Tween in PBS: PBS-Tween). and after blocking the wells with 5% milk in PBS-Tween for 1 hr, the cells were incubated with anti-human ICAM-1 antibody (Cell Signaling Technology, Danvers, Mass.) in 1% BSA PBS overnight at 4° C. The cells were washed with PBS-Tween and incubated with the secondary antibody (HRP-conjugated anti-rabbit IgG, Dako Ltd., Glostrup, Denmark). The ICAM-1 signal was detected by adding substrate and reading the absorbance at 450 nm against a reference wavelength of 655 nm using a spectrophotometer. The cells were then washed with PBS-Tween and total cell numbers in each well were determined by reading absorbance at 595 nm after Crystal Violet staining and elution by 1% SDS solution. The measured OD 450-655 readings were corrected for cell number by dividing with the OD595 reading in each well. The inhibition of ICAM-1 expression was calculated at each concentration of test compound by comparison with vehicle control. The 50% inhibitory concentration (IC50) was determined from the resultant concentration-response curve.

[4] = tested on: TNFα release in d-U937 cells; assay: LPS-induced TNFα release in d-U937 cells; type: cell-based, human; conditions: Homo sapiens, dU937, relative to 10 μg/mL BIRB796, read-out: LPS/TNFα REC50 d-U937
Method: (§2) LPS-Induced TNFα/IL-8 Release in d-U937 Cells
(§3) U937 cells, a human monocytic cell line, were differentiated to macrophage-type cells by incubation with phorbol myristate acetate (PMA; 100 ng/ml) for 48 to 72 hr. Cells were pre-incubated with final concentrations of test compound for 2 hr and were then stimulated with 0.1 μg/mL of LPS (from E. Coli: O111:B4, Sigma) for 4 hr. The supernatant was collected for determination of TNFα and IL-8 concentrations by sandwich ELISA (Duo-set, R&D systems). The inhibition of TNFα production was calculated as a percentage of that achieved by 10 μg/mL of BIRB796 at each concentration of test compound by comparison against vehicle control. The relative 50% effective concentration (REC50) was determined from the resultant concentration-response curve. The inhibition of IL-8 production was calculated at each concentration of test compound by comparison with vehicle control. The 50% inhibitory concentration (IC50) was determined from the resultant concentration-response curve.

[5] = tested on: IL-8 release in d-U937 cells; assay: LPS-induced IL-8 release in d-U937 cells; type: cell-based, human; conditions: Homo sapiens, dU937
Method: as §2, §3

[6] = tested on: TNFα release in THP-1 cells; assay: LPS-induced TNFα release in THP-1 cells; type: cell-based, human; conditions: Homo sapiens
Method: LPS-Induced TNFα Release in THP-1 Cells
THP-1 cells, a human monocytic cell line, were stimulated with 3 μg/mL of LPS (from E. Coli; 0111:B4, Sigma) for 4 hr and the supernatant collected for determination of the TNFα concentration by sandwich ELISA (Duo-set, R&D systems). The inhibition of TNFα production was calculated at each concentration by comparison with vehicle control. The 50% inhibitory concentration (IC50) was determined from the resultant concentration-response curve.

[7] = biological target: T2, p38 MAPKγ (MAPK12) (Homo sapiens, UniProt P53778); assay: Enzyme inhibition assay (FRET, Z-LYTE), p38 MAPKγ; type: biochemical; conditions: read-out: Enzyme Inhibition IC50 p38γ
T2 construct: purchased Invitrogen
T2 sequence (P53778 1-367): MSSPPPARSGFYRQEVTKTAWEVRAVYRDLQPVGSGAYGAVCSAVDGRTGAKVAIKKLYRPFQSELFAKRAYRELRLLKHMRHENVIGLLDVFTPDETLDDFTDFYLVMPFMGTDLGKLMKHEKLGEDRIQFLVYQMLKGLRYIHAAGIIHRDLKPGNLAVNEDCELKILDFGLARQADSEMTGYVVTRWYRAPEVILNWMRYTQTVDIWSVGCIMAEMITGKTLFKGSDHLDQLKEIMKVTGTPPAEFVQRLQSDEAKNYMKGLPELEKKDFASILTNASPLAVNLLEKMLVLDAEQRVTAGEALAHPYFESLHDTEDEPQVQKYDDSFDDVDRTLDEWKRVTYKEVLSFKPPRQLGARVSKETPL
Method: as §1

T1 sequence (Q16539 whole entry, canonical isoform): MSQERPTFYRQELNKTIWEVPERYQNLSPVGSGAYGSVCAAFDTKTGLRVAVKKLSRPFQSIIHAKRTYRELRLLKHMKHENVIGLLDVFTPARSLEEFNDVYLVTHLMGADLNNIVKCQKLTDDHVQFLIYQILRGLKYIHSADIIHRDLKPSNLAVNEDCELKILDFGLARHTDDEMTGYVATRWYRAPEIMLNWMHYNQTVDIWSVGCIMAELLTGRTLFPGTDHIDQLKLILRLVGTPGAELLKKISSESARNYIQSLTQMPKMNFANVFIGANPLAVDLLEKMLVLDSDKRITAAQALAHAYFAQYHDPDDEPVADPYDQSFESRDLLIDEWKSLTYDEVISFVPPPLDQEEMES

COc1ccc(-n2nc(C(C)(C)C)cc2NC(=O)Nc2ccc(OCc3ccnc(NC(=O)N4CCCC4)c3)c(Cl)c2Cl)cc1 [Example 20, N-(4-((4-(3-(3-tert-Butyl-1-(4-methoxyphenyl)-1H-pyrazol-5-yl)ureido)-2,3-dichlorophenoxy)methyl)pyridin-2-yl)pyrrolidine-1-carboxamide]
IC50 [1]: 30.7 nM | MTT Assay (Viability) 4 h d-U937, percentage loss of cell viability [2]: −19.1% | MTT Assay (Viability) 24 h d-U937, percentage loss of cell viability [2]: 9.6% | IC50 [3]: 16.5 nM | EC50 [4]: 69.5 nM | IC50 [5]: 1060 nM | IC50 [6]: 45.2 nM | IC50 [7]: > 15300 nM

CNC(=O)Nc1cc(COc2ccc(NC(=O)Nc3cc(C(C)(C)C)nn3-c3ccc(C)cc3)c3cccnc23)ccn1 [Example 21, 1-(3-tert-Butyl-1-p-tolyl-1H-pyrazol-5-yl)-3-(8-((2-(3-methylureido)pyridin-4-yl)methoxy)quinolin-5-yl)urea]
IC50 [1]: 81.5 nM | MTT Assay (Viability) 4 h d-U937, percentage loss of cell viability [2]: 14.5% | MTT Assay (Viability) 24 h d-U937, percentage loss of cell viability [2]: −12.0% | IC50 [3]: > 1730 nM | EC50 [4]: 164 nM | IC50 [5]: 12900 nM | IC50 [6]: 1770 nM | IC50 [7]: > 17300 nM

CN(C)CCCC(=O)Nc1cc(Oc2ccc(NC(=O)Nc3cc(C(C)(C)C)nn3-c3ccc(CO)cc3)c(Cl)c2Cl)ncn1 [Example 22]
IC50 [1]: 7.6 nM | MTT Assay (Viability) 4 h d-U937, percentage loss of cell viability [2]: −20.9% | MTT Assay (Viability) 24 h d-U937, percentage loss of cell viability [2]: 85.2% | IC50 [3]: 4.9 nM | EC50 [4]: 1.5 nM | IC50 [5]: 33.8 nM | IC50 [6]: 1.1 nM | IC50 [7]: 20.6 nM

COCC(=O)Nc1nccc(Oc2ccc(NC(=O)Nc3cc(C(C)(C)C)nn3-c3ccc(OC)cc3)c(Cl)c2Cl)n1 [Example 23, N-(4-(4-(3-(3-tert-Butyl-1-(4-methoxyphenyl)-1H-pyrazol-5-yl)ureido)-2,3-dichlorophenoxy)pyrimidin-2-yl)-2-methoxyacetamide]
IC50 [1]: 15.7 nM | MTT Assay (Viability) 4 h d-U937, percentage loss of cell viability [2]: −37.1% | MTT Assay (Viability) 24 h d-U937, percentage loss of cell viability [2]: −24.5% | IC50 [3]: 2 nM | EC50 [4]: 0.3 nM | IC50 [5]: 11.9 nM | IC50 [6]: 2.2 nM | IC50 [7]: 47.9 nM

CNC(=O)Nc1nccc(Oc2ccc(NC(=O)Nc3cc(C(C)(C)C)nn3-c3ccc(CO)cc3)c(Cl)c2Cl)n1 [Example 25, 1-(4-(4-(3-(3-tert-Butyl-1-(4-(hydroxymethyl)phenyl)-1H-pyrazol-5-yl)ureido)-2,3-dichlorophenoxy)pyrimidin-2-yl)-3-methylurea]
IC50 [1]: 10.7 nM | MTT Assay (Viability) 4 h d-U937, percentage loss of cell viability [2]: −3.5% | MTT Assay (Viability) 24 h d-U937, percentage loss of cell viability [2]: 58.6% | IC50 [3]: 10.8 nM | EC50 [4]: 1.2 nM | IC50 [5]: 2.5 nM | IC50 [6]: 1.7 nM | IC50 [7]: 139 nM

COCC(=O)Nc1cc(CSc2ccc(NC(=O)Nc3cc(C(C)(C)C)nn3-c3ccc(OC)cc3)c(Cl)c2Cl)ccn1 [Example 26, N-(4-((4-(3-(3-tert-Butyl-1-(4-methoxyphenyl)-1H-pyrazol-5-yl)ureido)-2,3-dichlorophenylthio)methyl)pyridin-2-yl)-2-methoxyacetamide]
IC50 [1]: 29 nM | MTT Assay (Viability) 4 h d-U937, percentage loss of cell viability [2]: 10.5% | MTT Assay (Viability) 24 h d-U937, percentage loss of cell viability [2]: −4.3% | IC50 [3]: > 156 nM | EC50 [4]: 171 nM | IC50 [5]: 266 nM | IC50 [6]: 97.2 nM | IC50 [7]: 2860 nM

COCC(=O)Nc1cc(Oc2ccc(NC(=O)Nc3cc(C(C)(C)C)nn3-c3ccc(C)cc3)c(Cl)c2)ccn1 [Example 27, N-(4-(4-(3-(3-tert-butyl-1-p-tolyl-1H-pyrazol-5-yl)ureido)-3-chlorophenoxy)pyridin-2-yl)-2-methoxyacetamide]
IC50 [1]: 18.8 nM | MTT Assay (Viability) 4 h d-U937, percentage loss of cell viability [2]: 7.2% | MTT Assay (Viability) 24 h d-U937, percentage loss of cell viability [2]: 54.9% | IC50 [3]: 6.3 nM | EC50 [4]: 0.5 nM | IC50 [5]: 3.3 nM | IC50 [6]: 0.6 nM | IC50 [7]: 111 nM

COCC(=O)Nc1cc(Oc2ccc(NC(=O)Nc3cc(C(C)(C)C)nn3-c3ccc(C)cc3)cc2C#N)ccn1 [Example 28, N-(4-(4-(3-(3-tert-butyl-1-p-tolyl-1H-pyrazol-5-yl)ureido)-2-cyanophenoxy)pyridin-2-yl)-2-methoxyacetamide]
IC50 [1]: 48.3 nM | MTT Assay (Viability) 4 h d-U937, percentage loss of cell viability [2]: −3.8% | MTT Assay (Viability) 24 h d-U937, percentage loss of cell viability [2]: 71.0% | IC50 [3]: 11.6 nM | EC50 [4]: 2.7 nM | IC50 [5]: 7 nM | IC50 [6]: 3.2 nM | IC50 [7]: 30.1 nM

COCC(=O)Nc1cc(Oc2ccc(NC(=O)Nc3cc(C(C)(C)C)nn3-c3ccc(C)cc3)cc2Cl)ccn1 [Example 29, N-(4-(4-(3-(3-tert-butyl-1-p-tolyl-1H-pyrazol-5-yl)ureido)-2-chlorophenoxy)pyridin-2-yl)-2-methoxyacetamide]
IC50 [1]: 46.1 nM | MTT Assay (Viability) 4 h d-U937, percentage loss of cell viability [2]: −0.7% | MTT Assay (Viability) 24 h d-U937, percentage loss of cell viability [2]: 30.8% | IC50 [3]: 77 nM | EC50 [4]: 0.8 nM | IC50 [5]: 17.9 nM | IC50 [6]: 2.2 nM | IC50 [7]: 46.1 nM
